Test system: IgE antibody from one patient having allergies to a soybean, a peach and an apple
Assay: ELISA of biotinylated peptides, study on cross-reactivity
Format: binding, human
Conditions: FIG. 6
Method: The binding activity of peptides comprising the amino acid sequences of SEQ ID NOS: 871, 984 and 985 against an IgE antibody from one patient having allergies to a soybean, a peach and an apple was confirmed by ELISA. The peptides were synthesized such that the peptides were N-terminally biotinylated by the Fmoc method.
To be specific, ELISA was carried out according to the following procedure. • (1) The concentrations of the biotinylated peptides were adjusted to 1 μg/mL with PBST. • (2) Each peptide solution was added at 40 μL to each well of a 384-well plate coated with streptavidin, and shaken at room temperature for one hour. After collection of the solution, the wells were washed with PBS five times. • (3) A 1:5 dilution of Blocking one (diluted with MQ) was added at 40 μL thereto and shaken at room temperature for 15 minutes. After removal of the solution, the wells were washed with PBS five times. • (4) A diluted serum solution (1:10, diluting solution: Blocking one produced by Nacalai Tesque, Inc.) was added at 40 μL thereto and shaken at room temperature for one hour. After removal of the solution, the wells were washed with PBS five times. • (5) A diluted secondary antibody solution (1:5000, diluting solution: Blocking one produced by Nacalai Tesque, Inc.) was added at 40 μL thereto and shaken at room temperature for one hour. […] Absorbance at 450 nm was measured.

Question: For “SEQ ID NO: 871: amino acids 1-15 of SEQ ID NO: 495 (seed biotin-containing protein SBP65-like isoform X1) (MASEQMPRRENNSNR; epitope)”, which “binding to IgE antibody from the allergic patient compared with IgE antibody from a healthy subject” value is on record?
Answer: Its value is “bound more strongly”.

Same assay, conditions: peptide 1 μg/mL, serum 1:10, absorbance at 450 nm, FIG. 6

Question: With “SEQ ID NO: 871: amino acids 1-15 of SEQ ID NO: 495 (seed biotin-containing protein SBP65-like isoform X1) (MASEQMPRRENNSNR; epitope)” as the substance, how does the “binding activity against the IgE antibody from the patient” value read?
Answer: The value was “exhibited binding activity”.

Test system: IgE antibodies from soybean-allergic patients
Assay: Immunoblotting of two-dimensional electrophoresis pattern of soybean proteins with patient serum
Format: binding, human
Conditions: spot in 2D electrophoresis gel of soybean proteins; patient serum compared with healthy subject serum
Text: Transfer to membrane was done using the following transfer system and transfer buffer. • Transfer system: XCell SureLock Mini-Cell and XCell II Blot Module (produced by Life Technologies) • Transfer buffer: NuPAGE Transfer Buffer (X20) (produced by Life Technologies), used in a form diluted 20-fold with milliQ water.
To be specific, proteins in the two-dimensional electrophoresis gels were transferred to a membrane (PVDF membrane) according to the following procedure. • (1) The PVDF membrane was immersed in 100% methanol followed by milliQ water, and then moved into the transfer buffer to hydrophilize the PVDF membrane. • (2) After sponge, filter paper, the gels treated by second-dimensional SDS-PAGE, the hydrophilized PVDF membrane, filter paper, and sponge were put in place in this order, the transfer system was energized at a constant voltage of 30 V for one hour.
Immunoblotting of the membrane was carried out using, as a primary antibody, a serum sample from a patient with a soybean allergy or a serum sample from a healthy subject.
Immunoblotting of the membrane was carried out according to the following procedure. • (1) The transferred membrane was shaken in a 5% skim milk/PBST solution (a PBS buffer containing 0.3% Tween 20 nonionic surfactant) at room temperature for one hour. • (2) The membrane was left to stand in a solution of 3% primary antibody serum in 5% skim milk/PBST at room temperature for one hour. • (3) The membrane was washed with a PBST solution (5 min.×3 times). • (4) The membrane was left to stand in a 1:2500 dilution of the secondary antibody, anti-human IgE-HRP (horseradish peroxidase), with a 3% skim milk/PBST solution at room temperature for one hour. • (5) The membrane was washed with a PBST solution (5 min.×3 times). • (6) The membrane was left to stand in Pierce Western Blotting Substrate Plus (produced by Thermo Fisher Scientific) for 5 minutes.
The membrane obtained through the foregoing series of treatments was subjected to fluorescent image scanning on Typhoon 9400 (produced by GE).
The immunoblots obtained with the serum from the soybean-allergic patient were compared with those obtained with the control serum from the healthy subject.

Question: For “UTP-glucose-1-phosphate uridylyltransferase [Spot 15α]”, which “specific binding to IgE antibodies from soybean-allergic patients” value (shortened to “specific binding to IgE antibodies”) is on record?
Answer: Its value is “specific binding”.

Question: Which “specific binding to IgE antibodies” value does the source give for elongation factor 1-alpha [Spot 35α] here?
Answer: The value was “specific binding”.

Question: For “embryo-specific urease isoform X1 [Spot 4α]”, which “specific binding to IgE antibodies” value is on record?
Answer: The value was “specific binding”.

Question: Which “specific binding to IgE antibodies” value does the source give for “glyceraldehyde-3-phosphate dehydrogenase isoform X1 [Spot 29α]” here?
Answer: Its value is “specific binding”.

Question: With heat shock cognate protein 80 [Spot 2α] as the substance, how does the “specific binding to IgE antibodies” value read?
Answer: The value was “specific binding”.

Question: How did the “specific binding to IgE antibodies” value turn out when “lysine-tRNA ligase, cytoplasmic-like isoform X2 [Spot 9α]” was run?
Answer: Its value is “specific binding”.

Question: With methionine synthase [Spot 7α] as the substance, how does the “specific binding to IgE antibodies” value read?
Answer: Its value is “specific binding”.

Question: “pyrophosphate-fructose 6-phosphate 1-phosphotransferase subunit alpha-like [Spot 12α]” was tested. Which “specific binding to IgE antibodies” value did it give?
Answer: The value was “specific binding”.

Question: “seed biotin-containing protein SBP65-like isoform X1 [Spot 38α]” was tested. Which “specific binding to IgE antibodies” value did it give?
Answer: Its value is “specific binding”.

Test system: IgE antibody present in the serum of a patient allergic to a soybean
Assay: Epitope mapping and overlapping peptide fragments on SPOT membrane, immunoblotting
Format: binding, human
Conditions: procedure of (B), overlapping
Method: Epitope mapping was carried out using a library of overlapping peptide fragments (length: 15 amino acids) corresponding to the sequences of proteins bound patient-specifically to IgE antibodies in serum, which were obtained as a result of 2D-western of soybeans.
The peptides to be synthesized were shifted by 10 amino acids.
For preparation of peptide arrays, peptide synthesis of interest was carried out in incremental steps on a modified cellulose membrane by the Intavis SPOT synthesis technique, which is a technique of synthesizing peptides of interest through 9-fluorenylmethoxycarbonyl (Fmoc) chemical reaction, using an automated synthesis apparatus (Intavis MultiPep RS). […]
The presence or absence of binding, to each peptide fragment, of an IgE antibody present in the serum of a patient allergic to a soybean was measured by immunoblotting using the membrane on which the peptide fragments were synthesized by SPOT. […]
Thereafter, for the sequences of peptides bound patient-specifically to IgE antibodies in serum in the epitope mapping described above in (A), a library of overlapping peptide fragments (length: 10 amino acids) was obtained as sequences having the sequences of these peptides as well as additional sequences subsequent to the peptides in the amino acid sequences of antigen proteins on which the epitopes were detected. […]

Question: For “SEQ ID NO: 871: amino acids 1-15 of SEQ ID NO: 495 (seed biotin-containing protein SBP65-like isoform X1) (MASEQMPRRENNSNR; epitope)”, which “identified as epitope (common sequence of peptides bound to IgE antibodies from allergic patients)” value is on record?
Answer: The value was “identified as epitopes”.

Reference: patent publication US20250262297A1, “ALLERGY ANTIGEN AND EPITOPE THEREOF” (HOYU CO., LTD., priority 2017, published 2025)
